Data as given in patent US7439265B2, “Irciniastatins a and b” (Arizona Board of Regents, a body corporate of the State of …, priority 2003, dated 2008).
In brackets after ≈: the same amount, converted by molar mass.

Tests used:
[1] = system: Cryptococcus neoformans ATCC 90112; test: Broth microdilution antifungal susceptibility; type: cell-based
Method: (§1) Ircinastatin A (1) was evaluated against the bacteria Stenotrophomonas maltophilia ATCC 13637, Micrococcus luteus Presque Isle 456, Staphylococcus aureus ATCC 29213, Escherichia coli ATCC 25922, Enterobacter cloacae ATCC 13047, Enterococcus faecalis ATCC 29212, Streptococcus pneumoniae ATCC 6303 and Neisseria gonorrhoeae ATCC 49226, and the fungi Candida albicans ATCC 90028 and Cryptococcus neoformans ATCC 90112, following established broth microdilution susceptibility assays. The minimum inhibitory concentration was defined as the lowest concentration of irciniastatin A that inhibited all visible growth of the test organism (optically clear). Assays were repeated on separate days. (National Committee for Clinical Laboratory Standards. Methods for Dilution Antimicrobial Susceptibility Tests for Bacteria that Grow Aerobically. Approved Standard M7-A5. Wayne, Pa.: NCCLS, 2000; National Committee for Clinical Laboratory Standards. Reference Method for Broth Dilution Antifungal Susceptibility Testing of Yeasts. Approved Standard M27-A. Wayne, Pa.: NCCLS, 1997.)

[2] = system: MCF-7 breast cancer cell line; test: Sulforhodamine B cancer cell growth inhibition, MCF-7; type: cell-based, human; settings: 48 hours
Method: (§2) Inhibition of human cancer cell growth was assessed using the National Cancer Institute's standard sulforhodamine B assay as previously described. Briefly, cells in a 5% fetal bovine serum/RPMI1640 medium solution were inoculated in 96-well plates and incubated for 24 hours Serial dilutions of the compounds were then added. After 48 hours, the plates were fixed with trichloroacetic acid, stained with sulforhodamine B and read with an automated microplate reader. A growth inhibition of 50% (GI50 of the drug concentration causing a 50% reduction in the net protein increase) was calculated from optical density data with Immunosoft software. Inhibition of the mouse leukemia P388 cells was assessed in a 10% horse serum/Fisher medium solution for 24 hours, followed by a 48 hour incubation with serial dilutions of the compounds. Cell growth inhibition (ED50) was then calculated using a Z1 Beckman/Coulter particle counter. (Monks, A., et al., Feasibility of high-flux anticancer screen using a diverse panel of cultured human tumor cell lines, J Natl. Cancer Inst. 1991, 83, 757-766.)

[3] = system: KM20L2 colon cancer cell line; test: Sulforhodamine B cancer cell growth inhibition, KM20L2; type: cell-based, human; settings: 48 hours
Method: as §2

[4] = system: P388 lymphocytic leukemia cells; test: Inhibition of mouse leukemia P388 cell growth; type: cell-based; settings: P388 murine leukemia, in Table 2
Method: as §2

[5] = system: HUVEC (human umbilical vascular endothelial cells); test: Growth inhibition of normal endothelial cells (HUVEC); type: cell-based
[6] = system: DU-145 prostate cancer cell line; test: Sulforhodamine B cancer cell growth inhibition, DU-145; type: cell-based, human; settings: 48 hours
Method: as §2

[7] = system: BXPC-3 pancreas cancer cell line; test: Sulforhodamine B cancer cell growth inhibition, BXPC-3; type: cell-based, human; settings: 48 hours
Method: as §2

[8] = system: NCI-H460 lung cancer cell line; test: Sulforhodamine B cancer cell growth inhibition, NCI-H460; type: cell-based, human; settings: for GI50: NCI-H460 lung, 48 hours
Method: as §2

[9] = system: Neisseria gonorrhoeae ATCC 49226; test: Broth microdilution antibacterial susceptibility; type: cell-based
Method: as §1

[10] = system: SF268 CNS cancer cell line; test: Sulforhodamine B cancer cell growth inhibition, SF268; type: cell-based, human; settings: 48 hours
Method: as §2

[11] = system: murine P388 leukemia cell line and six human cancer cell lines; test: Cancer cell growth inhibition, P388 plus minipanel of human cancer cell lines (summary); type: cell-based; settings: against P388, BXPC-3, MCF-7 and SF268
Method: as §2

| SMILES | minimum inhibitory concentration [1] | GI50 [2] | GI50 [3] | GI50 [4] | GI50 [5] | GI50 [6] | GI50 [7] | activity of irciniastatin A relative to irciniastatin B ([8]; NCI-H460 lung cancer cells) | GI50 [8] | minimum inhibitory concentration [9] | GI50 [10] | cell growth inhibition of irciniastatin B (2) relative to irciniastatin A (1) [11] |
| --- | --- | --- | --- | --- | --- | --- | --- | --- | --- | --- | --- | --- |
| C=C(C)CC(OC)[C@H](O)C(=O)N[C@@H](OC)[C@@H]1C[C@@H](O)C(C)(C)[C@@H](C[C@H](O)[C@@H](C)[C@H]2Cc3c(C)c(O)cc(O)c3C(=O)O2)O1 (stereo partly shown) [Irciniastatin A, irciniastatin A] | 16000 ng/mL (≈ 26200 nM) | 3.2 ng/mL (≈ 5.25 nM) | 2.7 ng/mL (≈ 4.43 nM) | 4.13 ng/mL (≈ 6.77 nM) | <0.5 ng/mL | 2.4 ng/mL (≈ 3.94 nM) | 3.8 ng/mL (≈ 6.23 nM) | at least 10 times | <0.1 ng/mL | 64000 ng/mL (≈ 105000 nM) | 3.4 ng/mL (≈ 5.58 nM) |  |
| C=C(C)C[C@H](OC)[C@H](O)C(=O)N[C@@H](OC)[C@@H]1CC(=O)C(C)(C)[C@@H](C[C@H](O)[C@@H](C)[C@H]2Cc3c(C)c(O)cc(O)c3C(=O)O2)O1 [Irciniastatin B, irciniastatin B] |  | 0.5 ng/mL (≈ 0.823 nM) | 2.1 ng/mL (≈ 3.46 nM) | 6 ng/mL (≈ 9.87 nM) |  | 1.6 ng/mL (≈ 2.63 nM) | 0.73 ng/mL (≈ 1.2 nM) |  | 1.2 ng/mL (≈ 1.97 nM) |  | 0.66 ng/mL (≈ 1.09 nM) | ten times stronger |
